Consider 12 compounds from patent publication US20250154173A1 (Merck Sharp & Dohme LLC, priority 2023, published 2025).

SMILES strings stand for the structures.

This assay concerns the target T1, GST-RIPK1 (recombinant GST-RIPK1 kinase domain (residues 1-327)) (Homo sapiens, UniProt Q13546).
T1 construct: recombinant GST-RIPK1 kinase domain (residues 1-327) enzyme produced from baculovirus-transfected Sf21 cells; host or cells: baculovirus-transfected Sf21 insect cells
T1 sequence (Q13546 1-327): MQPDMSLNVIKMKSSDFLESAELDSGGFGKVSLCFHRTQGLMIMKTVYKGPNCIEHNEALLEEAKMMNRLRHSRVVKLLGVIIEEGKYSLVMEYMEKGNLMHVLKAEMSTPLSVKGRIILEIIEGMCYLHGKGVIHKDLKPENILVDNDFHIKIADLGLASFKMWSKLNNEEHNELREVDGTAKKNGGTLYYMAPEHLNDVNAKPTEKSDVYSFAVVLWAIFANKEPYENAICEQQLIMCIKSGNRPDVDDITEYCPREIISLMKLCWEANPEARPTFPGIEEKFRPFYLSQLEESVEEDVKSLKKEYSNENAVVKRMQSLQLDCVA
The experiment in a line: RIPK1-ADP-Glo Enzymatic Assay. The class given is biochemical. Conditions: ten-point titration, top compound concentration of 100000 nM; 25 nM GST-RIPK1, 300 μM ATP, 3 μM dephosphorylated-MBP; 30 min pre-incubation, 150 min reaction. The method, boiled down: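 GST-RIPK1 kinase domain (residues 1-327, Sf21-expressed), 25 nM, preincubated 30 min with compound, then reacted 150 min with 300 μM ATP and 3 μM dephosphorylated MBP in pH 7.3 Hepes buffer, 1% DMSO. ADP measured by ADP-Glo luminescence; EC50 from ten-point titration (top 100000 nM), four-parameter fit.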

As for `N#CCCc1ccc(COC2CC3(C2)OC2CC[C@@H](c4cnccn4)N2C3=O)cc1` (stereo partly drawn) [Example 18.47, 3-[4-({[(5′S)-3′-oxo-5′-(pyrazin-2-yl)tetrahydro-3′H-spiro[cyclobutane-1,2′-pyrrolo[2,1-b][1,3]oxazol]-3-yl]oxy}methyl)phenyl]propanenitrile], the EC50 came out at 60 nM. Regarding `O=C1N2C(CC[C@H]2c2cnccn2)OC12CC(OCc1ccc3nc(C(F)(F)F)sc3c1)C2` (stereo partly drawn) [Example 18.48], the EC50 is 31 nM. Under `N#CCc1ncc(COC2CC3(C2)OC2CC[C@@H](c4cnccn4)N2C3=O)cc1Cl` (stereo partly drawn) [Example 18.49, [3-chloro-5-({[(5′S)-3′-oxo-5′-(pyrazin-2-yl)tetrahydro-3′H-spiro[cyclobutane-1,2′-pyrrolo[2,1-b][1,3]oxazol]-3-yl]oxy}methyl)pyridin-2-yl]acetonitrile] stands 59 nM; under `COCCOc1ccc(COC2CC3(C2)OC2CC[C@@H](c4cnccn4)N2C3=O)cc1` (stereo partly drawn) [Example 18.50, (5′S)-3-{[4-(2-methoxyethoxy)phenyl]methoxy}-5′-(pyrazin-2-yl)tetrahydro-3′H-spiro[cyclobutane-1,2′-pyrrolo[2,1-b][1,3]oxazol]-3′-one], 65 nM.

On to `N#Cc1cccc(F)c1COC1CC2(C1)OC1CC[C@@H](c3cnccn3)N1C2=O` (stereo partly drawn) [Example 18.51, 3-fluoro-2-({[(5′S)-3′-oxo-5′-(pyrazin-2-yl)tetrahydro-3′H-spiro[cyclobutane-1,2′-pyrrolo[2,1-b][1,3]oxazol]-3-yl]oxy}methyl)benzonitrile], for which the EC50 turned out to be 210 nM. With `O=C1N2C(CC[C@H]2c2cnccn2)OC12CC(OCc1cnn(-c3ccncc3)c1)C2` (stereo partly drawn) [Example 18.52, (5′S)-5′-(pyrazin-2-yl)-3-{[1-(pyridin-4-yl)-1H-pyrazol-4-yl]methoxy}tetrahydro-3′H-spiro[cyclobutane-1,2′-pyrrolo[2,1-b][1,3]oxazol]-3′-one], the EC50 was found to be 96 nM. Under `O=C1N2C(CC[C@H]2c2cnccn2)OC12CC(OCc1ccccc1-n1cccn1)C2` (stereo partly drawn) [Example 18.53, (5′S)-5′-(pyrazin-2-yl)-3-{[2-(1H-pyrazol-1-yl)phenyl]methoxy}tetrahydro-3′H-spiro[cyclobutane-1,2′-pyrrolo[2,1-b][1,3]oxazol]-3′-one] stands 117 nM; under `O=C1N2C(CC[C@H]2c2cnccn2)OC12CC(OCc1ccc3nc(C(F)(F)F)cn3c1)C2` (stereo partly drawn) [Example 18.54, (5′S)-5′-(pyrazin-2-yl)-3-{[2-(trifluoromethyl)imidazo[1,2-a]pyridin-6-yl]methoxy}tetrahydro-3′H-spiro[cyclobutane-1,2′-pyrrolo[2,1-b][1,3]oxazol]-3′-one], 159 nM.

With `N#Cc1ccoc1COC1CC2(C1)OC1CC[C@@H](c3cnccn3)N1C2=O` (stereo partly drawn) [Example 18.55, 2-({[(5′S)-3′-oxo-5′-(pyrazin-2-yl)tetrahydro-3′H-spiro[cyclobutane-1,2′-pyrrolo[2,1-b][1,3]oxazol]-3-yl]oxy}methyl)furan-3-carbonitrile], the EC50 was determined as 126 nM.

For the compound `CCc1nnc(-c2ccc(COC3CC4(C3)OC3CC[C@@H](c5cnccn5)N3C4=O)cc2)o1` (stereo partly drawn) [Example 18.56, (5′S)-3-{[4-(5-ethyl-1,3,4-oxadiazol-2-yl)phenyl]methoxy}-5′-(pyrazin-2-yl)tetrahydro-3′H-spiro[cyclobutane-1,2′-pyrrolo[2,1-b][1,3]oxazol]-3′-one], the EC50 came to 11 nM.

Regarding `O=C1N2C(CC[C@H]2c2cnccn2)OC12CC(OCc1ccc(OC3CCOCC3)nc1)C2` (stereo partly drawn) [Example 18.57, (5′S)-3-({6-[(oxan-4-yl)oxy]pyridin-3-yl}methoxy)-5′-(pyrazin-2-yl)tetrahydro-3′H-spiro[cyclobutane-1,2′-pyrrolo[2,1-b][1,3]oxazol]-3′-one], the EC50 was 109 nM. With `O=C1N2[C@@H](CC[C@H]2c2cnccn2)OC12CC(OCc1ccc(-c3nnco3)cc1)C2` (stereo partly drawn) [Example 18.58, (5′S, 7a′R)-3-{[4-(1,3,4-oxadiazol-2-yl)phenyl]methoxy}-5′-(pyrazin-2-yl)tetrahydro-3′H-spiro[cyclobutane-1,2′-pyrrolo[2,1-b][1,3]oxazol]-3′-one] the figure was 40 nM.
